Data as given in patent EP1614683B1, “Indazole compounds and pharmaceutical compositions for inhibiting protein kinases, and methods for their use” (priority 1999, dated 2001).
“And” between values parts separate entries of the source, which are not always exact repeats. Equal values may be shown once. Read-outs that look alike come from different tables or passages of the source. Marks after values point to notes of the source that are not given here.

How the values were obtained:
in vitro = in vitro ADME, human; conditions: 2 h; for remaining at 2 h, 5 µM: read-out: % remain (HLM, 2 h)
Experimental: Compound metabolism in human liver microsomes was measured by LC-MS analytical assay procedures as follows. First, human liver microsomes (HLM) were thawed and diluted to 5 mg/mL with cold 100 mM potassium phosphate (KPO4) buffer. Appropriate amounts of KPO4 buffer, NADPH-regenerating solution (containing B-NADP, glucose-6-phosphate, glucose-6-phosphate dehydrogenase, and MgCl2), and HLM were preincubated in 13 x 100 mm glass tubes at 37 C for 10 min. (3 tubes per test compound--triplicate). Test compound (5 µM final) was added to each tube to initiate reaction and was mixed by gentle vortexing, followed by incubation at 37 °C. At t=0, 2 h, a 250-µL sample was removed from each incubation tube to separate 12 x 75 mm glass tubes containing 1 mL ice-cold acetonitrile with 0.05 µM reserpine. […] Supernatant was transferred to new 12 x 75 mm glass tubes and evaporated by Speed-Vac centrifugal vacuum evaporator. Samples were reconstituted in 200 µL 0.1 % formic acid/acetonitrile (90/10) and vortexed vigorously to dissolve. The samples were then transferred to separate polypropylene microcentrifuge tubes and centrifuged at 14000 x g for 10 min. (Fisher Micro 14, S/N M0017580). For each replicate (#1-3) at each timepoint (0 and 2 h), an aliquot sample of each test compound was combined into a single HPLC vial insert (6 total samples) for LC-MS analysis, which is described below.

[1] = system: human umbilical vein endothelial cells (HUVEC); assay: HUVEC proliferation assay (VEGF-stimulated, MTT); type: cell-based; conditions: Homo sapiens, HUVEC, Table 1
[2] = target: unphosphorylated VEGF-R2Δ50 (Homo sapiens, UniProt P35968, DEL940-989/E990V); assay: biochemical; conditions: for inhibition at 0.05 µM: read-out: FLVK ** (% inhibition); for Ki: FLVK ** (Ki), Table 1; for inhibition at 1 µM: read-out: FLVK ** (% inhibition, cell marked *)
human FGF-R1 = human FGF-R1 (Homo sapiens, UniProt P11362, C488A/C584S/L457V); assay: FGF-R spectrophotometric assay; type: biochemical; conditions: Table 1, compound concentration 1 µM; for inhibition at 1 µM: read-out: FGF-P* (% inhibition); for FGF-P* (% inhibition): 1 µM
Experimental: The spectrophotometric assay was carried out as described above for VEGF-R2, except for the following changes in concentration: FGF-R = 50 nM, ATP = 2 mM, and poly(E4Y1) =15 mM.

LCK tyrosine kinase = LCK tyrosine kinase (Homo sapiens, UniProt P06239, C224D/P223M); assay: LCK spectrophotometric assay; type: biochemical; conditions: Table 1, compound concentration 1 µM; for inhibition at 1 µM: read-out: Lck-P* (% inhibition); for Lck-P* (% inhibition): 1 µM
Experimental: The spectrophotometric assay was carried out as described above for VEGF-R2, except for the following changes in concentration: LCK = 60 nM, MgCl2 = 0 mM, poly(E4Y1) = 20 mM.

[3] = human liver microsomes, 5 µM test compound, 37 °C
[4] = + albumin, read-out: HUVEC + albumin IC50

Chain of unphosphorylated VEGF-R2Δ50 (P35968 with tags, fused parts or gaps DEL940-989/E990V limits assumed): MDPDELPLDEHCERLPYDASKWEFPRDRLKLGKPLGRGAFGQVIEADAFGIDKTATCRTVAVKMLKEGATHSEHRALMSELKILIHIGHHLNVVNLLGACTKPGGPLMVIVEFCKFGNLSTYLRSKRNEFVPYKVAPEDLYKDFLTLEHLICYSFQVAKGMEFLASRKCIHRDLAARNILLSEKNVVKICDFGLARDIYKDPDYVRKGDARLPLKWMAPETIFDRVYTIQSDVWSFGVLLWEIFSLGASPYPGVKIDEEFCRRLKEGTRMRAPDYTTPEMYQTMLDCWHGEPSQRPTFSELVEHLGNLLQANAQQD
Chain of LCK tyrosine kinase (P06239 223-509 P223M/C224D): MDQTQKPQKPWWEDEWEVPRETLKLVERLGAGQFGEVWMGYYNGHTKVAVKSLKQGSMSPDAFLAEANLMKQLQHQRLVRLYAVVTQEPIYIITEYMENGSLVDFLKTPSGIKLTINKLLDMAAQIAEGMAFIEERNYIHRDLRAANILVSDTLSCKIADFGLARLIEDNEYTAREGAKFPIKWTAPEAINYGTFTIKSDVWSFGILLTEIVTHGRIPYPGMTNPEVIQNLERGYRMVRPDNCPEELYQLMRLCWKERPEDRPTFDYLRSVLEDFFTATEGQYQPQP
Chain of human FGF-R1 (P11362 456-766 L457V/C488A/C584S): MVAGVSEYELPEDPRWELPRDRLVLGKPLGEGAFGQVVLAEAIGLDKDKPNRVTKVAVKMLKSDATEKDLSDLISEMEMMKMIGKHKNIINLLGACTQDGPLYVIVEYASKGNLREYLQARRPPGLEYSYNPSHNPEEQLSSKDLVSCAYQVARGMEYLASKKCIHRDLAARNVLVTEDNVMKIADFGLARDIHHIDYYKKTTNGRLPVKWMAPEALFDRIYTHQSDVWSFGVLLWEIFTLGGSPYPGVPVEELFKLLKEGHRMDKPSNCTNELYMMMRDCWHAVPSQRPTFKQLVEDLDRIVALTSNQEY

Structure (SMILES) | % remain (HLM, 2 h) (in vitro; [3]) | IC50 [1, 4] | inhibition at 0.05 µM [2] | inhibition at 1 µM (human FGF-R1) | inhibition at 1 µM (LCK tyrosine kinase) | also measured
C=CCNC(=O)c1ccccc1Sc1ccc2c(/C=C/c3ccccn3)n[nH]c2c1 [Reference Example 35(u), 6-[2-(Allylcarbamoyl)phenylsulfanyl]-3-E-[2-(pyridin-2-yl)ethenyl]-1H-indazole] | 27% | 2.8 nM | 79% | – | – | –
O=C(Cc1ccccn1)Nc1cccc(C(=O)c2ccc3c(/C=C/c4ccccc4)n[nH]c3c2)c1 [19(g), 6-[3-(pyridin-2-ylacetamido)benzoyl]-3-E-styryl-1H-indazole] | – | 1920 nM | – | 59% | 19% | remaining at 2 h, 5 µM (in vitro; [3]): 90%; IC50 ([1]; read-out: HUVEC IC50): 18 nM; Ki [2]: 0.86 nM
C=CCn1nc(C)cc1C(=O)Nc1cc(C(=O)c2ccc3c(/C=C/c4ccccn4)n[nH]c3c2)ccc1C [Reference Example 41(ff), 6-[3-((1-Allyl-3-methyl-1H-pyrazol-5-yl)carboxamido)-4-methylbenzoyl]-3-E-[2-(pyridin-2-yl)ethenyl]-1H-indazole] | 68% | 5.6 nM | 98% | – | 15% | –
COc1ccc(CNC(=O)c2ccccc2Sc2ccc3c(/C=C/c4ccccn4)n[nH]c3c2)cc1 [Reference Example 35(g)] | 53% | ~15 nM | 100% | – | – | –
CCCONC(=O)c1ccccc1Sc1ccc2c(/C=C/c3ccccn3)n[nH]c2c1 [Reference Example 35(t), 6-[2-(n-Propoxycarbamoyl)phenylsulfanyl]-3-E-[2-(pyridin-2-yl)ethenyl]-1H-indazole] | 7% | 4 nM | – | 63% | 12% | inhibition at 1 µM [2]: 59%
CCOCCNC(=O)c1ccccc1Sc1ccc2c(/C=C/c3ccccn3)n[nH]c2c1 [Reference Example 35(z), 6-[2-(2-(Ethoxy)ethylcarbamoyl)phenylsulfanyl]-3-E-[2-(pyridin-2-yl)ethenyl]-1H-indazole] | 2% | 7.1 nM | 95% | – | – | –
Cc1cc(C(=O)Nc2cccc(C(=O)c3ccc4c(/C=C/c5ccccn5)n[nH]c4c3)c2)nn1C [Reference Example 41(i), 6-[3-((1,5-dimethyl-1H-pyrazol-3-yl)carboxamido)benzoyl]-3-E-[2-(pyridin-2-yl)ethenyl]-1H-indazole] | – | – | 98% | – | – | FGF-P* (% inhibition) (human FGF-R1): 41%; FGF-P* (% inhibition) (human FGF-R1; listed as 41(I)): 66% and 76%; remaining at 2 h, 5 µM (in vitro; [3]): 48%; IC50 ([1]; read-out: HUVEC IC50): 0.25 nM; Ki [2]: 0.24 nM and 0.04 nM; Lck-P* (% inhibition) (LCK tyrosine kinase): 16%; Lck-P* (% inhibition) (LCK tyrosine kinase; listed as 41(I)): 63%* and 38%*
Cc1cc(C(=O)Nc2cc(C(=O)c3ccc4c(/C=C/c5ccccn5)n[nH]c4c3)c(C)cc2C)n(C)n1 [41(min)] | – | 14.4 nM | 93% | 46% | 6% | % remain (HLM, 2 h) (in vitro; human, microsomes, 5 µM): 94%; IC50 ([1]; read-out: HUVEC IC50): 1.3 nM
CCNC(=O)c1ccccc1Sc1ccc2c(/C=C/c3ccccn3)n[nH]c2c1 [Reference Example 35(x), 6-[2-(Ethylcarbamoyl)phenylsulfanyl]-3-E-[2-(pyridin-2-yl)ethenyl]-1H-indazole] | 37% | 2 nM | 75% | – | – | –
C[C@@H]1C[C@H]1C(=O)Nc1cccc(C(=O)c2ccc3c(/C=C/c4ccccn4)n[nH]c3c2)c1 (racemic) [Reference Example 41(h), 6-[3-((2-RS-trans-methylcyclopropyl)carboxamido)benzoyl]-3-E-[2-(pyridin-2-yl)ethenyl]-1H-indazole] | – | 25 nM | 90% | – | 30% | remaining at 2 h, 5 µM (in vitro; [3]): 8%; IC50 ([1]; read-out: HUVEC IC50): 2 nM
O=C(NCc1ccco1)c1ccccc1Sc1ccc2c(/C=C/c3ccccn3)n[nH]c2c1 [Reference Example 35(bb), 6-[2-((fur-2-yl)methylcarbamoyl)phenylsulfanyl]-3-E-[2-(pyridin-2-yl)ethenyl]-1H-indazole] | 8% | 4.1 nM | 87% | – | – | –
O=C(NOCC1CC1)c1ccccc1Sc1ccc2c(/C=C/c3ccccn3)n[nH]c2c1 [Reference Example 35(s), 6-[2-((Cyclopropyl)methoxycarbamoyl)phenylsulfanyl]-3-E-[2-(pyridin-2-yl)ethenyl]-1H-indazole] | – | 4.6 nM | – | 64% | 18% | remaining at 2 h, 5 µM (in vitro; [3]): 16%; inhibition at 1 µM [2]: 60%
COc1cccc(CNC(=O)c2ccccc2Sc2ccc3c(/C=C/c4ccccn4)n[nH]c3c2)c1 [Reference Example 35(aa)] | 15% | 5 nM | 99% | – | – | –
CC(C)=CC(=O)Nc1cccc(C(=O)c2ccc3c(/C=C/c4ccccn4)n[nH]c3c2)c1 [Reference Example 41(dd), 6-[3-(3,3-dimethylacrylamido)benzoyl]-3-E-[2-(pyridin-2-yl)ethenyl]-1H-indazole] | 7% | 5.8 nM | 98% | 69% | 50% | –
CCONC(=O)c1cccc(F)c1Sc1ccc2c(/C=C/c3ccccn3)n[nH]c2c1 [Reference Example 37(a), 6-[6-Fluoro-2-(ethoxycarbamoyl)phenylsulfanyl}-3-E-[2-(pyridin-2-yl)ethenyl]-1H-indazole] | 21, ! % | 15 nM | 57% | 35% | 6% | –
Cc1ccc(CNC(=O)c2ccccc2Sc2ccc3c(/C=C/c4ccccn4)n[nH]c3c2)o1 [Reference Example 35(h), 6-[2-((5-Methylfur-2-yl)methylcarbamoyl)phenylsulfanyl)-3-E-[2-(pyridin-2-yl)ethenyl]-1H-indazole] | 9% | 3.6 nM | 100% | – | – | –
Cn1cccc1C(=O)NNC(=O)c1ccccc1Sc1ccc2c(/C=C/c3ccccn3)n[nH]c2c1 [Reference Example 35(e), 6-[2-((1-methylpyrrol-2-ylhydrazido)carbonyl)phenylsulfanyl]-3-E-[2-(pyridin-2-yl)ethenyl)-1H-indazole] | 34% | 4.8 nM | 99% | 69% | 56% | –
COc1cccc(C(=O)Nc2cccc(C(=O)c3ccc4c(/C=C/c5ccccn5)n[nH]c4c3)c2)c1 [Reference Example 41(bb), 6-[3-(3-methoxybenzamido)benzoyl]-3-E-[2-(pyridin-2-yl)ethenyl]-1H-indazole] | 110% | 1 to 3 nM | 99% | 88% | 76% | –
O=C(NCc1ccccc1F)c1ccccc1Sc1ccc2c(/C=C/c3ccccn3)n[nH]c2c1 [Reference Example 35(f)] | 15% | – | 100% | – | – | –
C=C(C)CNC(=O)c1ccccc1Sc1ccc2c(/C=C/c3ccccn3)n[nH]c2c1 [Reference Example 35(ee), 6-[2-(2-Methyl-2-propenylcarbamoyl)phenylsulfanyl]-3-E-[2-(pyridin-2-yl)ethenyl]-1H-indazole] | 13% | 3 nM | 82% | – | – | –
